Literature values, collected in patent US10324098B2, “T2R taste receptors and genes encoding same” (SENOMYX, INC., priority 2000, dated 2019).

Key:
mouse T2R5 [1] = biological target: T1, mouse T2R5 (Mus musculus, UniProt Q9JKT4)
T1 sequence (Q9JKT4 1-300): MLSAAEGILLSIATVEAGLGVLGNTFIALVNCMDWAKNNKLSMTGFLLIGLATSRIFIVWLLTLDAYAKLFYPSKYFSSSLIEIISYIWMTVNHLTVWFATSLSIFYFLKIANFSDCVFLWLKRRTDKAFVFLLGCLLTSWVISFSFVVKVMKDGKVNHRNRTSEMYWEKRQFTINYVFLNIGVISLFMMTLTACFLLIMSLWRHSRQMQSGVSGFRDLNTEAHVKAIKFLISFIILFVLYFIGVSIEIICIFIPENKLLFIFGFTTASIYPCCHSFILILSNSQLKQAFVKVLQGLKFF

mouse T2R5 [2] = biological target: T1, mouse T2R5; details: mouse T2R5, G Protein gustducin
mouse T2R8 = biological target: T2, mouse T2R8 (Mus musculus, UniProt Q9JKT3)
T2 sequence (Q9JKT3 1-297): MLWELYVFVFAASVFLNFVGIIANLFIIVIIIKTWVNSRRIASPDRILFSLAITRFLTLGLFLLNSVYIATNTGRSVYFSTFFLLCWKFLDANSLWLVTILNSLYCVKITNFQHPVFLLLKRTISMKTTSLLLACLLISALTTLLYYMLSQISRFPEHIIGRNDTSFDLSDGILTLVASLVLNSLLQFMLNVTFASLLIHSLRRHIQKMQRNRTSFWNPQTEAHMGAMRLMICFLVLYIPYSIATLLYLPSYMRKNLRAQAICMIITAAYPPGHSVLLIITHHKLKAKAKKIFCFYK

human T2R4 = biological target: T3, human T2R4 (Homo sapiens, UniProt Q9NYW5)
T3 sequence (Q9NYW5 1-299): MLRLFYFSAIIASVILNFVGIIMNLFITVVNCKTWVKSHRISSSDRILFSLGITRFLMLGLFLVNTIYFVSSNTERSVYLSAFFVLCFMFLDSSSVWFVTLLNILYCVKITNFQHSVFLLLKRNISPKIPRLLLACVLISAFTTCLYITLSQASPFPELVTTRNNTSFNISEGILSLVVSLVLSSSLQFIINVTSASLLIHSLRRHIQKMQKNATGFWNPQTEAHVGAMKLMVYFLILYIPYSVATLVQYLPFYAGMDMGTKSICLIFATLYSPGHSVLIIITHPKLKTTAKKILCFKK

receptor responsive to tastant (mouse T2R8)	receptor responsive to tastant (human T2R4)	SMILES	receptor receptive to tastant (mouse T2R5 [1])	ligand dependent coupling with gustducin (mouse T2R5 [2])
		C[C@@H]1C[C@@H]([C@H](O)CC2CC(=O)NC(=O)C2)C(=O)[C@@H](C)C1 [cycloheximide]	specifically receptive	strong cycloheximide dependent coupling with gustducin
specifically responsive	specifically responsive	CCCc1cc(=O)[nH]c(=S)[nH]1 [PROP, 6-n-propylthiouracil]		
specifically responsive	specifically responsive	CC[N+](CC)(CC(=O)Nc1c(C)cccc1C)Cc1ccccc1 [denatonium]		
